Assays:
σ2 receptor = target: T1, σ2 receptor (Rattus norvegicus, UniProt Q5U3Y7); experiment: σ2 receptor competition binding assay with [3H]-DTG, σ1 masked; details: apparent Ki, rat liver membranes
T1 construct: Rat liver membranes were prepared from male Sprague-Dawley rat livers as previously described; from tissue; host or cells: male Sprague-Dawley rat liver membranes
T1 sequence (Q5U3Y7 1-176): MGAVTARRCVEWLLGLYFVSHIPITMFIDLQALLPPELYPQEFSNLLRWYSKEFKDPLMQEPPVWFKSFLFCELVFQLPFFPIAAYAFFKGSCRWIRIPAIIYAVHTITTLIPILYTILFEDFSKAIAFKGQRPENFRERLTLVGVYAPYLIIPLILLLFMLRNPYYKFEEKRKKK
Method: Rat liver membranes were prepared from male Sprague-Dawley rat livers as previously described (Eur. J. Pharmacol.—Mol. Pharmacol. Sect. 1994, 268, 9-18). The in vitro σ2 receptor binding affinities of rhenium coordinated complexes were determined in a competition assay using rat livers and [^3H]-DTG (31 Ci/mmol, NEN Life Science Inc., Cambridge, Mass.) as radioligand in the presence of 10 μM 1-pyrrolidinylethyl 3,4-dichlorophenylacetate oxalate (ACT915 oxalate) to mask σ1 receptors (Bioorg. & Med. Chem. Lett. 2000, 10, 17-18). Competition assays were performed with twelve concentrations of the nonradioactive rhenium complexes ranging from 1×10^−10 to 1×10^−3 and protein samples (0.15 mg of membrane protein) in a total volume of 0.25 mL of Tris-HCl (50 mM, pH 8.0) for 120 min at 25° C. All other manipulations and data analysis were performed as described vide supra for the σ1-receptor assays.

[1] = Determination of lipophilicity and pKa values by HPLC; type: physicochemical; details: for k' (pH = 7.4): HPLC capacity factor at pH 7.4; for k' (Max): HPLC capacity factor, maximum; for pKa (Corrected): HPLC method, corrected with standard amines
Method: The lipophilicity and pKa values of all complexes were determined using HPLC methods described previously (Stylli, C.; Theobald, A. E. Determination of Ionization Constants of Radiopharmaceuticals in Mixed Solvents by HPLC. Appl. Radiat. Isot., 1987, 38, 701-708; Johannsen, B.; Scheunemann, M.; Spies, H.; Brust, P.; Wober, J.; Syhre, R.; Pietzsch, H.-J. Technetium(V) and Rhenium(V) Complexes for 5-HT2A Serotonin Receptor Binding: Structure-Affinity Considerations. Nucl. Med. Biol., 1996, 23, 429-438; and Johannsen, B.; Berger, R.; Brust, P.; Pietzsch, H.-J.; Scheunemann, M.; Seifert, S.; Spies, H.; Syhre, R. Structural Modification of Receptor-Binding Technetium-99m Complexes in Order to Improve Brain Uptake. Eur. J. Nucl. Med. 1997, 24, 316-319). […] The mobile phase was acetonitrile:phosphate buffer (0.01 M), 3:1, v/v, with the aqueous buffer adjusted to the desired pH between 3 and 11. The capacity factor (k′) was calculated for each determination (Braumann, T.; Grimme, L. H. Determination of Hydrophobic Parameters for Pyridazinone Herbicides by Liquid-Liquid Partition and Reversed-Phase High-Performance Liquid Chromatography. J. Chromatogr. 1981, 206, 7-15; El Tayer, N.; van der Waterbeemd, H.; Testa, B. Lipophilicity Measurements of Protonated Basic Compounds by Reversed-Phase High-Performance Liquid Chromatography. II. Procedure for the Determination of a Lipophilic Index Measured by Reversed-Phase High Performance Liquid Chromatography. J. Chromatogr. 1985, 320, 305-312; and Minick, D. J.; Frenz, J. H.; Patrick, M. A.; Brent, D. A. A Comprehensive Method for Determining Hydrophobicity Constants by Reversed-Phase High-Performance Liquid Chromatography. J. Med. Chem., 1988, 31, 1923-1933) and the partition coefficient at a given pH (D or logD) were calculated from the equation: log D=a log k′+b where the parameters a and b are predetermined using standard amines. The fitted points of inflection from the sigmoidal DHPLC/pH profiles permit calculation of the pKHPLC(Stylli, C.; Theobald, A. E. Determination of Ionization Constants of Radiopharmaceuticals in Mixed Solvents by HPLC. Appl. Radiat. Isot., 1987, 38, 701-708). The aqueous ionization constants pKa were calculated from the pKHPLC values after correction with a predetermined correction factor obtained using standard amine compounds. Log P values of the neutral complexes were estimated from the respective upper plateau of the sigmoidal log D/pH curve in the alkaline range.

SMILES	Ki (σ2 receptor)	k' (pH = 7.4) [1]	k' (Max) [1]	pKa (Corrected) [1]
COc1ccccc1C1CCN(CCCN2CC[S][Re]3(=[O])[S]CC[N]3C(=O)C2)CC1 (centres unmarked) [Re-16]	336 ± 70 nM	57	117	8.09
O=C1CN(CCCN2CCC(Cc3ccccc3)CC2)CC[S][Re]2(=[O])[S]CC[N]12 (centres unmarked) [Re-15]	136 ± 22 nM	60	160	8.34
